86 molecules from a melting point compilation (Tetko et al.; mined from patent text by program, amines drawn as free bases though some values may be those of a salt) can be followed below.

For orientation: melting point means the temperature, or range, at which the solid turns liquid. `Cc1nc(NC(=O)c2ccccc2)sc1C(=O)NCc1ccc(F)cc1` gave a melting point of 206 to 208 °C.

Turning to `NC(=O)C(=O)Nc1nc(-c2cc3ccccc3oc2=O)cs1`, the melting point is 297 to 300 °C.

Molecule `CC(=O)NCc1ccc(CN2CCN(c3ccc(N)cc3)CC2)cc1` showed a melting point of 198 to 200 °C.

The molecule `C#CCOC(=O)c1ncn2c1CN(C)C(=O)c1cc(F)ccc1-2` came in with a melting point of 220 to 222 °C.

Turning to `COC1(c2nc3ccccc3s2)C=CC(=O)C=C1`, the melting point was 123 °C.

Molecule `Cc1cccc(NC(=O)CN2CCN(c3ncccn3)CC2)c1` came in with a melting point of 113 to 116 °C.

Molecule `Cc1oc(-c2ccccc2)nc1CNCc1ccc(C[C@@H](C(=O)O)n2cccc2)cc1` registered a melting point of 163 to 165 °C.

Consider `O=C1CN(c2nccc(Oc3ccc(NC(=O)c4cc(F)cc(N5CCOCC5)c4)c4ccccc34)n2)CCN1`, for which the melting point lay within 108 to 110 °C.

In turn, `CCN(C(=O)C1CC1)c1cccc(-c2ccnc3c(Cl)cnn23)c1` had a melting point of 150 to 151 °C.

`Cc1cccc(OCCCN2CCC(OC(c3ccccc3)c3ccccc3)CC2)c1NS(C)(=O)=O` gave a melting point of 132 °C.

Turning to `CCOC(=O)c1c(C)cc2ncn(-c3ccccc3)c(=O)c2c1C`, the melting point lay in the range of 102 to 103 °C.

For the molecule `COc1ccnc(CCc2nc3cc(-c4ccc(S(=O)(=O)N5CCC6(CC5)OCCO6)cc4)cnc3[nH]2)c1`, the melting point is 121 to 122 °C.

Molecule `O=C(NCc1ccc2cc(O)ccc2c1)c1cc2ccccc2o1` yielded a melting point of 200 to 202 °C.

In turn, `CC(=O)c1cc(CNS(C)(=O)=O)ccc1O` yielded a melting point of 85 to 86.5 °C.

For the molecule `CS(=O)(=O)c1ccc(C2=C(c3ccccc3)C(=O)C2(Cl)Cl)cc1`, the melting point lay within 124 to 125 °C.

Turning to `CC(C)Cc1c2c(nn1C)c(N)nc1ccccc12`, the melting point lay in the range of 213 to 214 °C.

With `Cc1cc(Cl)c2c(C#N)cn(-c3ccc(C(C)C)cc3Br)c2n1`, the melting point was determined as 123 °C.

In turn, `Cc1nccn1Cc1ccc(COc2cccc3c2CN(C2CCC(=O)NC2=O)C3=O)cc1` (stereo unspecified) gave a melting point of 275 to 277 °C.

Regarding `O=S(=O)(Cl)c1ccc(Oc2ccc(F)cc2)cc1`, the melting point is 76 °C.

`CCc1ccc(NC(=O)OCc2ccccc2)nc1` gave a melting point of 125 to 127 °C.

The molecule `CC(C)c1ccc([N+](=O)[O-])c(C(C)C)c1NC(=O)CN1CCN(CCSc2nc3ccccc3o2)CC1` had a melting point of 143 to 145 °C.

As to `CC(=O)NCCNc1cccc(-c2cc(-c3ccc(F)cc3O)nc(NC(=O)c3ccco3)c2C#N)c1`, the melting point is 158 to 160 °C.

In turn, `COc1cc(OC)c(-c2cc3ccccc3s2)cc1C=CC(=O)c1cc(OC)c(O)c(OC)c1` gave a melting point of 85 to 105 °C.

`Cc1nc2c3c(c(C(=O)N(C)CCO)cc2n1C)CCC1(Cc2ccccc2C1)N3` displayed a melting point of 194 to 195 °C.

Molecule `COC(=O)c1ccccc1S(=O)(=O)N(c1ccn(-c2nc(C)cc(C)n2)n1)S(=O)(=O)c1ccccc1C(=O)OC` displayed a melting point of 177 °C.

Molecule `CC(C)N1C(=O)c2cccnc2NS1(=O)=O` came in with a melting point of 190 °C.

For `CC(C)(c1ccc2ncccc2c1)n1nnc2ccc(-c3cnn(CCO)c3)nc21`, the melting point was in the range of 95 to 98 °C.

As to `NS(=O)(=O)c1cccc(-c2noc(-c3cnn4c(C(F)(F)F)cc(-c5ccc(C(F)(F)F)cc5)nc34)n2)c1`, the melting point came to 262 °C.

Molecule `CCS(=O)(=O)C(F)(F)C(O)(Cn1cncn1)c1ccc(F)cc1` (stereo unspecified) had a melting point of 131 to 132 °C.

`C[C@@H](n1ncn(-c2ccc(O)cc2)c1=O)[C@](O)(Cn1cncn1)c1ccc(F)cc1F` came in with a melting point of 242 °C.

`CCc1nc2c(N)nc3cc(OCCc4c(C)n[nH]c4C)ccc3c2s1`: the melting point lay within 195 to 197 °C.

Turning to `CC1SCCCNc2ccccc21` (stereo unspecified), the melting point was in the range of 72 to 74 °C.

In the case of `O=C1NCCc2c(OCc3ccccc3)cccc21`, the melting point was in the range of 171 to 173 °C.

As for `CCCn1nc(-c2ccc(OC)cc2)c2cccc(-c3ccccc3)c21`, the melting point fell in the range of 58 to 59 °C.

For `CC(C)(C)OC(=O)C=Cc1ccc(NC(=O)C=C2CC(C(=O)OCc3ccccc3)Nc3cc(Cl)cc(Cl)c32)cc1` (racemic), the melting point worked out at 85 °C.

Take `Cc1c(C)c2c(c(C)c1NC(=O)CC(C)(C)C)C(C1CCCCC1)C(C)(C)O2` (stereo unspecified): the melting point was 198 to 199 °C.

Regarding `COC(=O)Cc1ccc2c(c1)N(C)Cc1ccccc1C2=O`, the melting point was 88.4 to 90.5 °C.

The molecule `NC1=NC(c2ccc(O)cc2)(c2cccc(-c3cccnc3F)c2)C2=NCCCN12` (stereo unspecified) had a melting point of 164 to 181 °C.

Take `O=C(CC12CC3CC(CC(C3)C1)C2)Nc1ccc2[nH]ccc2c1`: the melting point lay in the range of 184 to 185 °C.

The molecule `COC1=CC(=NC2CCCCC2)c2ccccc2C1=O` gave a melting point of 145 to 147 °C.

As for `OCCC(=C(c1ccccc1)c1ccc(OCCBr)cc1)c1ccccc1`, the melting point is 133 to 137 °C.

Take `CC(C)(C)OC(=O)NNC(=O)c1ccnc2[nH]c(CCc3ccccc3)cc12`: the melting point is 187 to 188 °C.

On to `CCCCCCCCCCCCCCCCOC(=O)CCCCCCCCCCCCC`, for which the melting point lay in the range of 54 to 56 °C.

`Cc1cc(-c2ccc(C(F)(F)F)cc2)cc(-c2ccnc(-c3cccc(S(N)(=O)=O)c3)n2)n1` came in with a melting point of more than 250 °C.

On to `CCOC(=O)c1ncn(-c2nncs2)c1S`, for which the melting point lay in the range of 182 to 185 °C.

`O=C(c1ccccc1)C1CNC(=S)C1` (stereo unspecified) yielded a melting point of 110 to 112 °C.

Take `c1cc2c3c(c1)C1CCCCCCC1N3CCNC2` (stereo unspecified): the melting point fell in the range of 58 to 63 °C.

In turn, `CC(C)(C)OC(=O)N1CCC2(CC1)CC(=O)N(OCCO)C2=O` showed a melting point of 97 to 98 °C.

On to `OCC1OC(n2cnc3c(NC4Cc5ccccc5C4)ncnc32)C(O)C1O` (stereo unspecified), for which the melting point fell in the range of 166 to 168 °C.

In the case of `NC(=O)c1sc2nccc(N3CCCN(c4ccc5c(c4)OCCO5)CC3)c2c1N`, the melting point lay within 104 to 107 °C.

Molecule `Fc1ccc(-c2ncn(CCN3CCOCC3)c2-c2ccncc2)cc1` returned a melting point of 114 to 115 °C.

For `OC(c1ccc(Oc2ccc(Cl)cc2Cl)cc1)C(F)n1cncn1` (stereo unspecified), the melting point was 107 to 108 °C.

For `N#Cc1nn(-c2c(Cl)cc(C(F)(F)F)cc2Cl)c(N)c1-c1ccc(Cl)cc1`, the melting point lay in the range of 235 to 237 °C.

As for `CC(=O)c1cc(S)c(Cl)cc1CC(=O)OCF`, the melting point lay within 125 to 126 °C.

In the case of `CC(C)(O)Cc1ccc(N)cc1`, the melting point lay in the range of 107 to 108 °C.

Consider `CCOC(=O)C(O)CCc1ccc(C(=O)CCc2nc(-c3ccccc3)oc2C)cc1` (stereo unspecified), for which the melting point lay in the range of 87 to 88 °C.

In turn, `O=[N+]([O-])c1ccc(S(=O)(=O)Nc2cccc(F)c2)c([N+](=O)[O-])c1` returned a melting point of 172 to 173 °C.

Molecule `CCCNC(=O)Cn1c(-c2ccc(Cl)cc2)nc2cccnc21` showed a melting point of 220 to 221 °C.

Molecule `COC(=O)c1ccc(OS(=O)(=O)C(F)(F)F)c(C23CC4CC(CC(C4)C2)C3)c1` had a melting point of 95 °C.

On to `CCCCCN(CCCCC)C(=O)[C@H]1Cc2c([nH]c3ccccc23)CN1`, for which the melting point is 157 to 158 °C.

Molecule `COC(=O)c1ccc(Nc2ccc(C(=O)OC)cc2)cc1` yielded a melting point of 174 to 175 °C.

`O=C(O)CN1C(=O)C(=Cc2ccc3ccccc3c2)SC1=S` had a melting point of 257 to 264 °C.

On to `c1ccc2nc(COc3ccc4[nH]ccc4c3)ccc2c1`, for which the melting point lay within 134 to 137 °C.

Molecule `CCCC(=O)c1cnc2c(OCCN(C)C)cccc2c1Nc1ccccc1C` had a melting point of 88 to 90 °C.

Consider `CCCn1c(=O)c2[nH]c(C34CCC(C)(C(=O)C3=O)C4(C)C)nc2n(CCC)c1=O` (stereo unspecified), for which the melting point was in the range of 200 to 201 °C.

For `N#CC(N)C=Cc1ccccc1` (stereo unspecified), the melting point is 79 °C.

With `CN1C2CC(OC(=O)Cc3ccccc3)CC1C(O)C2O` (stereo unspecified), the melting point was 120 to 122 °C.

Consider `COc1ccccc1C1CC(=O)Oc2ccc(C)cc21` (stereo unspecified), for which the melting point stood at 140 °C.

For `CC1(C)OC(=S)N(c2cc(F)cc(C(F)(F)F)c2)c2ccccc21`, the melting point was 204 to 206 °C.

As for `Cc1c(-c2ccc(O)c(F)c2)sc(C=O)c1-c1ccc(O)cc1`, the melting point was in the range of 227 to 229 °C.

Take `CCCCc1nc2c(N)nc3ccccc3c2n1CCCNS(=O)(=O)c1cccc2c(N(C)C)cccc12`: the melting point is 216 to 218 °C.

For the molecule `CCOP(=O)(NCC(=O)OCc1ccccc1)C1CC(c2ccccc2)=NO1` (stereo unspecified), the melting point was in the range of 91 to 103 °C.

As to `CC1(C)Oc2cc3nonc3cc2C(N2CCC(Br)CC2=O)C1O` (stereo unspecified), the melting point is 250 to 253 °C.

In turn, `CN1CCN(c2nc3sc4c(NCCc5ccccn5)ncnc4c3c3c2COC(C)(C)C3)CC1` displayed a melting point of 227 to 229 °C.

For `COC(=O)[C@H](Cc1ccc(N2C(=O)c3ccc(Br)cc3C2=O)cc1)NC(=O)OC(C)(C)C`, the melting point lay in the range of 168 to 170 °C.

In the case of `COC(=O)c1cccc(Oc2cccc(-c3nnc(N(Cc4ccc(C(F)(F)P(=O)(O)O)c(Cl)c4)c4ccc(Cl)c(Cl)c4)s3)c2)c1`, the melting point lay within 73 to 76 °C.

Molecule `COc1cc2nc(N3CCc4c(cccc4-c4cnccc4N)C3)[nH]c(=O)c2cc1OC` gave a melting point of more than 300 °C.

On to `CNc1nc2ccccc2c(-c2ccccc2)c1C(=O)N(C)Cc1cc(C(F)(F)F)cc(C(F)(F)F)c1`, for which the melting point was in the range of 173 to 174 °C.

`c1ccc2c(c1)OP(N(C1CCCCC1)C1CCCCC1)c1ccccc1-2` (stereo unspecified) returned a melting point of 162 °C.

`O=S1NC(Cc2coc3ccccc23)=NO1` (stereo unspecified) registered a melting point of 138 to 140 °C.

`Cc1nnc2n1-c1ccc([N+](=O)[O-])cc1C(c1ccccc1Cl)=NC2` showed a melting point of 231 to 233 °C.

The molecule `CC(=O)C1(O)CCC2C3C=C(C)C4=CC(=O)CCC4(CO)C3CCC21C` (stereo unspecified) yielded a melting point of 184 to 186 °C.

Turning to `O=C1CCN(c2ccncc2)CC1`, the melting point is 101 to 104 °C.

`COc1ncnc(OC)c1C(C(C)C)N(C)C(=O)Cc1ccc(Cl)cc1` (stereo unspecified) yielded a melting point of 107 to 109 °C.

For `C=C(C)C(=O)Oc1c(Cc2cc(C)cc(C(C)(C)C)c2O)cc(C)cc1C(C)(C)C`, the melting point was in the range of 144 to 146 °C.

`Cc1sc(C)c2c1CCC=C2c1c[nH]cn1` returned a melting point of 179 to 180 °C.
